From BigSolDB 2.1

O=C1CCc2ccc(OCCCCN3CCN(c4cccc(Cl)c4Cl)CC3)cc2N1
solubility (mole fraction)
Conditions	278.15 K	283.15 K	288.15 K	293.15 K	298.15 K	303.15 K	308.15 K	313.15 K	318.15 K
in acetone	1.97e-05	2.73e-05	3.6e-05	4.71e-05	5.94e-05	7.32e-05	8.93e-05	0.00011	0.000135
in isopropanol	6.32e-06	9.1e-06	1.22e-05	1.68e-05	2.25e-05	2.94e-05	3.89e-05	5.05e-05	6.38e-05
in n-propanol	1.46e-05	1.93e-05	2.57e-05	3.28e-05	4.12e-05	5.37e-05	6.72e-05	8.32e-05	0.000103
